Like-named read-outs stand apart in the source and are kept apart here.
Columns and labels:
ZIKV replicon = test: ZIKV replication inhibition assay (NanoLuc replicon in Vero cells); settings: 72 h, read-out: ZIKA Cell_Nanoluc
[1] = biological target: Japanese encephalitis virus (JEV)-NS2B-NS3 protease (Japanese encephalitis virus, UniProt P32886, DEL1469-1493); test: JEV protease inhibition assay; format: biochemical
[2] = biological target: T1, West Nile Virus (WNV) NS2B-NS3 protease (West Nile virus, UniProt Q9Q6P4); test: WNV protease inhibition assay; format: biochemical; settings: Table 4; letter codes for IC50
T1 construct: NS2B1423-1470); purchased R&D 2907-SE-020
Excerpt: WNV protease inhibition assay

[3] = read-out: JEV - NS3 protease, 600 nM enzyme, 10 µM Pyr-RTKR-AMC substrate, 25 °C
[4] = 600 nM enzyme, 10 µM Pyr-RTKR-AMC substrate, 25 °C, read-out: JEV - NS3 protease
[5] = Vero cells with stable ZIKV replicon, Nano-Glo readout

`O=C(Cc1ccccc1)Nc1cc(NC(=O)[N-]c2c[n+]([C@H]3CC[C@@H](CN4C(=O)c5ccccc5C4=O)CC3)no2)cc(C(F)(F)F)c1` [Example 60, (3-((1S,4S)-4-((1,3-Dioxoisoindolin-2-yl)methyl)cyclohexyl)-1,2,3-oxadiazol-3-ium-5-yl)((3-(2-phenylacetamido)-5-(trifluoromethyl)-phenyl)carbamoyl)amide] was tested, and the EC50 (ZIKV replicon; Zika virus, Vero) was 1 to 20 µM and the IC50 [1] was 1 to 20 µM.
In the case of `CN(C)[C@H]1C[C@H]([n+]2cc([N-]C(=O)Nc3cc(NC(=O)Cc4ccccc4)cc(C(F)(F)F)c3)on2)C1` [Example 55, (3-((1R3R)-3-(Dimethylamino)cyclobutyl)-1,2,3-oxadiazol-3-ium-5-yl)((3-(2-phenyl-acetamido)-5-(trifluoromethyl)phenyl)-carbamoyl)amide], the EC50 (ZIKV replicon; Zika virus, Vero) is reported as 1 to 20 µM and the IC50 [1] is reported as 1 to 20 µM.
`NC[C@H]1CC[C@H]([n+]2cc([N-]C(=O)Nc3cc(NC(=O)Cc4ccccc4)cc(C(F)(F)F)c3)on2)CC1` [Example 93, (3-((1R,4R)-4-(Aminomethyl)cyclohexyl)-1,2,3-oxadiazol-3-ium-5-yl)((3-(2-phenyl-acetamido)-5-(trifluoromethyl)phenyl)-carbamoyl)amide] gave an EC50 (ZIKV replicon; Zika virus, Vero) of 1 to 20 µM and an IC50 [1] of 0.1 to 1 µM.
`CN(C)C[C@H]1CC[C@@H]([n+]2cc([N-]C(=O)Nc3cc(NC(=O)Cc4ccccc4)cc(C(F)(F)F)c3)on2)CC1` [Example 61, (3-((1S,4S)- -4-((Dimethylamino)methyl)cyclohexyl)-1,2,3-oxadiazol-3-ium-5-yl)((3-(2-phenylacetamido)-5-(trifluoromethyl)phenyl)carbamoyl)amide] showed an EC50 (ZIKV replicon; Zika virus, Vero) of 1 to 20 µM and an IC50 [1] of 1 to 20 µM.
`COc1ncc(-c2ccc(C[n+]3cc([N-]C(=O)Nc4cc(NC(=O)Cc5ccc(Cl)cc5)cc(C(F)(F)F)c4)on3)cc2)c(C)n1` [Example 17] showed an EC50 (ZIKV replicon; Zika virus, Vero) of 1 to 20 µM and an IC50 [1, 3] of over 20 µM.
For `N[C@H]1C[C@H]([n+]2cc([N-]C(=O)Nc3cc(NC(=O)Cc4ccccc4)cc(C(F)(F)F)c3)on2)C1` [Example 26, (3-((1R,3R)-3-Aminocyclobutyl)-1,2,3-oxadiazol-3-ium-5-yl)((3-(2-phenylacetamido)-5-(trifluoromethyl)phenyl)carbamoyl)amide], the EC50 (ZIKV replicon; Zika virus, Vero) was over 20 µM and the IC50 [1] was 1 to 20 µM.
`N[C@H]1CC[C@@H]([n+]2cc([N-]C(=O)Nc3cc(NC(=O)Cc4ccccc4)cc(C(F)(F)F)c3)on2)CC1` [Example 91, (3-((1S,4S)-4-Aminocyclohexyl)-1,2,3-oxadiazol-3-ium-5-yl)((3-(2-phenylacetamido)-5-(trifluoromethyl)phenyl)carbamoyl)amide] showed an EC50 (ZIKV replicon; Zika virus, Vero) of over 20 µM and an IC50 [1] of 1 to 20 µM.
With `CN(C)C[C@H]1CC[C@@H]([n+]2cc([N-]C(=O)Nc3cc(N4CCC(c5ccccc5)C4=O)cc(C(F)(F)F)c3)on2)CC1` (stereo partly drawn) [Example 138, (3-((1S,4S)-4-((Dimethylamino)methyl)-cyclohexyl)-1,2,3-oxadiazol-3-ium-5-yl)((3-(2-oxo-3-phenylpyrrolidin-1-yl)-5-(trifluoromethyl)-phenyl)carbamoyl)amide] the EC50 (ZIKV replicon; Zika virus, Vero) was 1 to 20 µM and the IC50 [1] was 1 to 20 µM.
With `CN(C)[C@H]1CC[C@@H]([n+]2cc([N-]C(=O)Nc3cc(NC(=O)Cc4ccccc4)cc(C(F)(F)F)c3)on2)CC1` [Example 95, (3-((1S,4S)-4-(Dimethylamino)cyclohexyl)-1,2,3-oxadiazol-3-ium-5-yl)((3-(2-phenylacetamido)-5-(trifluoromethyl)phenyl)-carbamoyl)amide] the EC50 (ZIKV replicon; Zika virus, Vero) was 1 to 20 µM and the IC50 [1] was 1 to 20 µM.
`CN(C)C[C@H]1CC[C@H]([n+]2cc([N-]C(=O)Nc3cc(NC(=O)Cc4ccccc4)cc(C(F)(F)F)c3)on2)CC1` [Example 147, (3-((1R,4R)-4-((Dimethylamino)methyl)-cyclohexyl)-1,2,3-oxadiazol-3-ium-5-yl)((3-(2-phenylacetamido)-5-(trifluoromethyl)phenyl)-carbamoyl)amide] gave an IC50 [2] of under 0.1 µM, an EC50 (ZIKV replicon; Zika virus, Vero) of 1 to 20 µM and an IC50 [1, 4] of 1 to 20 µM.
In the case of `NC[C@H]1CC[C@@H]([n+]2cc([N-]C(=O)Nc3cc(N4CCC(c5ccccc5)C4=O)cc(C(F)(F)F)c3)on2)CC1` (stereo partly drawn) [Example 119, (3-((1S,4S)-4-(Aminomethyl)cyclohexyl)-1,2,3-oxadiazol-3-ium-5-yl)((3-(2-oxo-3-phenylpyrrolidin-1-yl)-5-(trifluoromethyl)phenyl)-carbamoyl)amide], the EC50 (ZIKV replicon; Zika virus, Vero) is reported as 1 to 20 µM and the IC50 [1] is reported as 1 to 20 µM.
“((3-Cyclopropyl-5-(2-(phenylsulfonyl)-acetamido)phenyl)carbamoyl)(3-((1R,4R)-4-((dimethylamino)methyl)cyclohexyl)-1,2,3-oxadiazol-3-ium-5-yl)amide [Example 150]” gave an IC50 [2] of under 0.1 µM, an EC50 (ZIKV replicon; [5]) of 1 to 20 µM and an IC50 [1, 4] of 1 to 20 µM.
With `CC(=O)NC[C@H]1CC[C@@H]([n+]2cc([N-]C(=O)Nc3cc(NC(=O)Cc4ccccc4)cc(C(F)(F)F)c3)on2)CC1` [Example 62, (3-((1S,4S)-4-(Acetamidomethyl)cyclohexyl)-1,2,3-oxadiazol-3-ium-5-yl)((3-(2-phenylacetamido)-5-(trifluoromethyl)phenyl)carbamoyl)amide] the EC50 (ZIKV replicon; Zika virus, Vero) was over 20 µM and the IC50 [1] was 1 to 20 µM.
With `CN(C)[C@H]1CC[C@H]([n+]2cc([N-]C(=O)Nc3cc(NC(=O)Cc4ccccc4)cc(C(F)(F)F)c3)on2)CC1` [Example 96, (3-((1R,4R)-4-(dimethylamino)cyclohexyl)-1,2,3-oxadiazol-3-ium-5-yl)((3-(2-phenylacetamido)-5-(trifluoromethyl)phenyl)-carbamoyl)amide] the EC50 (ZIKV replicon; Zika virus, Vero) was 1 to 20 µM and the IC50 [1] was 1 to 20 µM.
`N[C@H]1CC[C@H]([n+]2cc([N-]C(=O)Nc3cc(NC(=O)Cc4ccccc4)cc(C(F)(F)F)c3)on2)CC1` [Example 92, (3-((1R,4R)-4-Aminocyclohexyl)-1,2,3-oxadiazol-3-ium-5-yl)((3-(2-phenylacetamido)-5-(trifluoromethyl)phenyl)carbamoyl)amide] showed an EC50 (ZIKV replicon; Zika virus, Vero) of over 20 µM and an IC50 [1] of 1 to 20 µM.
`CN(C)C[C@H]1CC[C@H]([n+]2cc([N-]C(=O)Nc3cc(NC(=O)Cc4ccc5c(c4)OCO5)cc(C(F)(F)F)c3)on2)CC1` [Example 154, ((3-(2-(Benzo[d][1,3]dioxol-5-yl)acetamido)-5-(trifluoromethyl)phenyl)carbamoyl)(3-((1R,4R)-4-((dimethylamino)methyl)cyclohexyl)-1,2,3-oxadiazol-3-ium-5-yl)amide] gave an IC50 [2] of 1 to 20 µM, an EC50 (ZIKV replicon; [5]) of over 20 µM and an IC50 [1, 4] of over 20 µM.
Work on `N[C@H]1CC[C@H](C[n+]2cc([N-]C(=O)Nc3cc(N4CC[C@H](c5ccccc5)C4=O)cc(C(F)(F)F)c3)on2)CC1` [Example 143, (3-(((1R,4R)-4-Aminocyclohexyl)methyl)-1,2,3-oxadiazol-3-ium-5-yl)((3-((R)-2-oxo-3-phenylpyrrolidin-1-yl)-5-(trifluoromethyl)-phenyl)carbamoyl)amide] yielded an EC50 (ZIKV replicon; Zika virus, Vero) of over 20 µM and an IC50 [1] of 1 to 20 µM.
Compound `COc1ncc(-c2ccc(C[n+]3cc([N-]C(=O)Nc4cc(NC(=O)c5ccccc5)cc(C(F)(F)F)c4)on3)cc2)c(C)n1` [Example 15] has an EC50 (ZIKV replicon; Zika virus, Vero) of 0.1 to 1 µM and an IC50 [1, 3] of 1 to 20 µM.
`NC[C@H]1CC[C@@H]([n+]2cc([N-]C(=O)Nc3cc(NC(=O)Cc4ccccc4)cc(C(F)(F)F)c3)on2)CC1` [Example 59, (3-((1S,4S)-4-(Aminomethyl)cyclohexyl)-1,2,3-oxadiazol-3-ium-5-yl)((3-(2-phenyl-acetamido)-5-(trifluoromethyl)phenyl)-carbamoyl)amide] gave an EC50 (ZIKV replicon; Zika virus, Vero) of 1 to 20 µM and an IC50 [1] of 1 to 20 µM.
With `COc1ncc(-c2ccc(C[n+]3cc([N-]C(=O)Nc4cc(NC(=O)Cc5ccc(CN)cc5)cc(C(F)(F)F)c4)on3)cc2)c(C)n1` [Example 22] the EC50 (ZIKV replicon; Zika virus, Vero) was 1 to 20 µM and the IC50 [1, 3] was over 20 µM.
`COc1ncc(-c2ccc(C[n+]3cc([N-]C(=O)Nc4cc(NC(=O)Cc5noc6ccccc56)cc(C(F)(F)F)c4)on3)cc2)c(C)n1` [Example 20] showed an EC50 (ZIKV replicon; Zika virus, Vero) of over 20 µM and an IC50 [1, 3] of over 20 µM.
